From patent publication US9884832B2 (priority 2011, dated 2018)
Like-named read-outs stand apart in the source and are kept apart here.

What was measured:
[1] = target: AM2 V27A (valine→alanine mutation at residue 27 in the M2 protein) (Influenza A virus, UniProt P0DOF5, V27A); assay type: cell-based, influenza virus A/Udorn/72
[2] = target: AM2 S31N (serine→asparagine mutation at residue 31 in the M2 protein) (Influenza A virus, UniProt P0DOF5, S31N); assay type: cell-based, influenza virus A/Udorn/72

Compound | V27A OOcyte Inhibition at 100 uM (%) [1] | S31N OOcyte Inhibition at 100 uM (%) [2] | V27A OOcyte Inhibition at 100 uM (%) ([1]; pH 5.5) | S31N OOcyte Inhibition at 100 uM (%) ([2]; pH 5.5)
Brc1cccc(CNC23CC4CC(CC(C4)C2)C3)c1 [Example 3a, N-(3-Bromobenzyl)adamantan-1-amine] | B (key: (A)=31-95%; (B)=0-30%) | B (key: (A)=31-95%; (B)=0-30%) |  | 
CC(NCc1ccc(O)cc1)C12CC3CC(CC(C3)C1)C2 (centres unmarked) [Example 4, 4-[(1-Adamantan-1-yl-ethylamino)-methyl]-phenol] |  |  | B (key: (A)=31-95%; (B)=0-30%) | B (key: (A)=31-95%; (B)=0-30%)
FC(F)(F)Oc1ccc(CNC23CC4CC(CC(C4)C2)C3)cc1 [Example 4a, Adamantan-1-yl-(4-trifluoromethoxy-benzyl)-amine] | B (key: (A)=31-95%; (B)=0-30%) | B (key: (A)=31-95%; (B)=0-30%) |  | 
N=C(Nc1ccc(O)cc1)C12CC3CC(CC(C3)C1)C2 [Example 5] |  |  | B (key: (A)=31-95%; (B)=0-30%) | B (key: (A)=31-95%; (B)=0-30%)
FC(F)(F)c1ccc(CNC23CC4CC(CC(C4)C2)C3)cc1 [Example 5a, Adamantan-1-yl-(4-trifluoromethyl-benzyl)-amine] | B (key: (A)=31-95%; (B)=0-30%) | B (key: (A)=31-95%; (B)=0-30%) |  | 
Oc1ccc(/C=N/C23CC4CC(CC(C4)C2)C3)cc1 [Example 6] |  |  | B (key: (A)=31-95%; (B)=0-30%) | B (key: (A)=31-95%; (B)=0-30%)
C[Si](C)(C)c1ccc(CNC23CC4CC(CC(C4)C2)C3)cc1 [Example 6a, Adamantan-1-yl-(4-trimethylsilanyl-benzyl)-amine] | B (key: (A)=31-95%; (B)=0-30%) | A (key: (A)=31-95%; (B)=0-30%) |  | 
Oc1ccc(/C=N/C23CC4CC(CC(C4)C2)C3)c(O)c1 [Example 7] |  |  | A (key: (A)=31-95%; (B)=0-30%) | B (key: (A)=31-95%; (B)=0-30%)
CC(C)(C)c1ccc(CNC23CC4CC(CC(C4)C2)C3)cc1 [Example 7a, N-(4-(tert-Butyl)benzyl)adamantan-1-amine methanesulfonate] | B (key: (A)=31-95%; (B)=0-30%) | A (key: (A)=31-95%; (B)=0-30%) |  | 
c1ccc(CNC23CC4CC(CC(C4)C2)C3)cc1 [Example 8, Adamantan-1-yl-benzyl-amine] |  |  | B (key: (A)=31-95%; (B)=0-30%) | B (key: (A)=31-95%; (B)=0-30%)
Oc1ccc(CNC23CC4CC(CC(C4)C2)C3)cc1 [Example 9, 4-(Adamantan-1-ylaminomethyl)-phenol] |  |  | B (key: (A)=31-95%; (B)=0-30%) | A (key: (A)=31-95%; (B)=0-30%)
c1cc(C2CCCCC2)ccc1CNC12CC3CC(CC(C3)C1)C2 [Example 10a, Adamantan-1-yl-(4-cyclohexyl-benzyl)-amine] | B (key: (A)=31-95%; (B)=0-30%) | A (key: (A)=31-95%; (B)=0-30%) |  | 
Nc1ccc(CNC23CC4CC(CC(C4)C2)C3)cc1 [Example 11, Adamantan-1-yl-(4-amino-benzyl)-amine] |  |  | B (key: (A)=31-95%; (B)=0-30%) | B (key: (A)=31-95%; (B)=0-30%)
COc1ccc(C(C)NC23CC4CC(CC(C4)C2)C3)cc1 (centres unmarked) [Example 11a, N-(1-(4-methoxyphenyl)ethyl)adamantan-1-amine] | A (key: (A)=31-95%; (B)=0-30%) | A (key: (A)=31-95%; (B)=0-30%) |  | 
CC(C)(C)OC(=O)Nc1ccc(CNC23CC4CC(CC(C4)C2)C3)cc1 [Example 12, [4-(Adamantan-1-ylaminomethyl)-phenyl]carbamic acid tert-butyl ester] |  |  | B (key: (A)=31-95%; (B)=0-30%) | B (key: (A)=31-95%; (B)=0-30%)
CCSc1ccc(CNC23CC4CC(CC(C4)C2)C3)cc1 [Example 12a, N-(4-(ethylthio)benzyl)adamantan-1-amine] | B (key: (A)=31-95%; (B)=0-30%) | A (key: (A)=31-95%; (B)=0-30%) |  | 
NCc1ccc(CNC23CC4CC(CC(C4)C2)C3)cc1 [Example 13, Adamantan-1-yl-(4-aminomethyl-benzyl)-amine] |  |  | A (key: (A)=31-95%; (B)=0-30%) | B (key: (A)=31-95%; (B)=0-30%)
c1ccc(Oc2ccc(CNC34CC5CC(CC(C5)C3)C4)cc2)cc1 [Example 13a, Adamantan-1-yl-(4-phenoxy-benzyl)-amine] | B (key: (A)=31-95%; (B)=0-30%) | A (key: (A)=31-95%; (B)=0-30%) |  | 
N#Cc1ccc(CNC23CC4CC(CC(C4)C2)C3)cc1 [Example 14, 4-(Adamantan-1-ylaminomethyl)-benzonitrile] |  |  | B (key: (A)=31-95%; (B)=0-30%) | B (key: (A)=31-95%; (B)=0-30%)

Compound | V27A OOcyte Inhibition at 100 uM (%) [1] | S31N OOcyte Inhibition at 100 uM (%) [2] | V27A OOcyte Inhibition at 100 uM (%) ([1]; pH 5.5) | S31N OOcyte Inhibition at 100 uM (%) ([2]; pH 5.5)
COc1cccc(COc2ccc(CNC34CC5CC(CC(C5)C3)C4)cc2)c1 [Example 14a, Adamantan-1-yl-[4-(3-methoxy-benzyloxy)-benzyl]-amine] | B (key: (A)=31-95%; (B)=0-30%) | A (key: (A)=31-95%; (B)=0-30%) |  | 
c1cc(-c2nnn[nH]2)ccc1CNC12CC3CC(CC(C3)C1)C2 [Example 15, Adamantan-1-yl-[4-(1H-tetrazol-5-yl)-benzyl]amine] |  |  | B (key: (A)=31-95%; (B)=0-30%) | B (key: (A)=31-95%; (B)=0-30%)
COc1ccccc1COc1ccc(CNC23CC4CC(CC(C4)C2)C3)cc1 [Example 15a, Adamantan-1-yl-[4-(2-methoxy-benzyloxy)-benzyl]-amine] | B (key: (A)=31-95%; (B)=0-30%) | A (key: (A)=31-95%; (B)=0-30%) |  | 
COc1ccc(CNC23CC4CC(CC(C4)C2)C3)cc1 [Example 16, Adamantan-1-yl-(4-methoxy-benzyl)-amine] |  |  | A (key: (A)=31-95%; (B)=0-30%) | A (key: (A)=31-95%; (B)=0-30%)
Clc1ccc(COc2ccc(CNC34CC5CC(CC(C5)C3)C4)cc2)cc1 [Example 16a, Adamantan-1-yl-[4-(4-chloro-benzyloxy)-benzyl]-amine] | B (key: (A)=31-95%; (B)=0-30%) | A (key: (A)=31-95%; (B)=0-30%) |  | 
NC(=O)c1ccc(CNC23CC4CC(CC(C4)C2)C3)cc1 [Example 18, 4-(Adamantan-1-ylaminomethyl)-benzamide] |  |  | B (key: (A)=31-95%; (B)=0-30%) | B (key: (A)=31-95%; (B)=0-30%)
O=[N+]([O-])c1ccc(CNC23CC4CC(CC(C4)C2)C3)cc1 [Example 19, Adamantan-1-yl-(4-nitro-benzyl)-amine] |  |  | B (key: (A)=31-95%; (B)=0-30%) | B (key: (A)=31-95%; (B)=0-30%)
CCOc1ccc(CNC23CC4CC(CC(C4)C2)C3)cc1 [Example 20, Adamantan-1-yl-(4-ethoxy-benzyl)-amine] |  |  | B (key: (A)=31-95%; (B)=0-30%) | A (key: (A)=31-95%; (B)=0-30%)
c1coc(COc2ccc(CNC34CC5CC(CC(C5)C3)C4)cc2)c1 [Example 21, Adamantan-1-yl-[4-(furan-2-ylmethoxy)-benzyl]-amine] |  |  | A (key: (A)=31-95%; (B)=0-30%) | A (key: (A)=31-95%; (B)=0-30%)
c1cc(COc2ccc(CNC34CC5CC(CC(C5)C3)C4)cc2)co1 [Example 22, Adamantan-1-yl-[4-(furan-3-ylmethoxy)-benzyl]-amine] |  |  | B (key: (A)=31-95%; (B)=0-30%) | A (key: (A)=31-95%; (B)=0-30%)
CSc1ccc(CNC23CC4CC(CC(C4)C2)C3)cc1 [Example 23, Adamantan-1-yl-(4-methylsulfanyl-benzyl)-amine] |  |  | B (key: (A)=31-95%; (B)=0-30%) | A (key: (A)=31-95%; (B)=0-30%)
C[S+]([O-])c1ccc(CNC23CC4CC(CC(C4)C2)C3)cc1 (centres unmarked) [Example 24, Adamantan-1-yl-(4-methanesulfinyl-benzyl)-amine] |  |  | B (key: (A)=31-95%; (B)=0-30%) | B (key: (A)=31-95%; (B)=0-30%)
CS(=O)(=O)c1ccc(CNC23CC4CC(CC(C4)C2)C3)cc1 [Example 25, Adamantan-1-yl-(4-methanesulfonyl-benzyl)-amine] |  |  | B (key: (A)=31-95%; (B)=0-30%) | B (key: (A)=31-95%; (B)=0-30%)
FC(F)(F)Sc1ccc(CNC23CC4CC(CC(C4)C2)C3)cc1 [Example 26, Adamantan-1-yl-(4-trifluoromethylsulfanyl-benzyl)-amine] |  |  | B (key: (A)=31-95%; (B)=0-30%) | A (key: (A)=31-95%; (B)=0-30%)
Fc1ccc(CNC23CC4CC(CC(C4)C2)C3)cc1 [Example 27, Adamantan-1-yl-(4-fluoro-benzyl)-amine] |  |  | B (key: (A)=31-95%; (B)=0-30%) | B (key: (A)=31-95%; (B)=0-30%)
Oc1ccccc1CNC12CC3CC(CC(C3)C1)C2 [Example 28, 2-(Adamantan-1-ylaminomethyl)-phenol] |  |  | B (key: (A)=31-95%; (B)=0-30%) | B (key: (A)=31-95%; (B)=0-30%)
COc1ccccc1CNC12CC3CC(CC(C3)C1)C2 [Example 29, Adamantan-1-yl-(2-methoxy-benzyl)-amine] |  |  | B (key: (A)=31-95%; (B)=0-30%) | B (key: (A)=31-95%; (B)=0-30%)
c1csc(-c2ccc(CNC34CC5CC(CC(C5)C3)C4)cc2)c1 [Example 29a, N-(4-(Thiophen-2-yl)benzyl)adamantan-1-amine methanesulfonate] | B (key: (A)=31-95%; (B)=0-30%) | A (key: (A)=31-95%; (B)=0-30%) |  | 
